The results in this text go back to article PMC4745926, “Absorption, Metabolism, and Excretion by Freely Moving Rats of 3,4-DHPEA-EDA and Related Polyphenols from Olive Fruits (Olea europaea)” (Journal of Nutrition and Metabolism, 2016).

Several values for one entry are separate records, joined by “and”; a condition that tells them apart may be missing. Equal values may be shown once. Entries after “also recorded” stand apart in the source; their conditions may differ. Read-outs that look alike come from different tables or passages of the source. Bounds are passed on as bounds.

A short description of data set [1]: Portal plasma pharmacokinetics after oral administration in portal vein cannulated, freely moving rats. Format: in vivo, Wistar ST rats. Conditions: for AUC: 0→4 h after oral administration, mean ± SEM; for bioavailability: plasma, intact compound, oral versus intravenous administration, read-out: bioavailability for 4 hours. The procedure:
(§1) SPF Wistar ST rats (6 weeks of age, male, 180 ± 20 g of body weight) were purchased from Japan SLC Inc. (Hamamatsu, Japan). The rats were housed in an air-conditioned room at 22 ± 2°C under cycles of 12 hours dark and 12 hours light and given free access to a commercial diet and water for a week. The rats were then fasted for over 16 hours before the experiments. The present study was approved by the Animal Care and Use Committee at Kagawa University, and the rat treatment conformed to the Rules of Animal Experiments at Kagawa University. After fasting, the rats were cannulated with a polyethylene tube (PE-50; 0.58 mm I.D., 0.965 mm O.D.) into the jugular vein, portal vein, or bile duct under anesthesia with isoflurane inhalation using a WP-SAA01 (LMS Co., Ltd., Tokyo, Japan). A small hole was made in the vein or duct using pointed scissors and cannulated with the polyethylene tube. After inserting the tube, it was fixed at the edge of the vein or duct. The jugular vein and portal vein cannulas penetrated under the skin and were then tied at the back of the rats, and the bile duct cannula was tied at the abdomen of the rats. Bile duct-cannulated rats were then restrained in a Bollman cage (Natsume Seisakusho Co., Ltd., Tokyo, Japan). Before further experiments, the rats were allowed to recover from anesthesia. 3,4-[…] (300 mg/kg body weight; 936.51 μmol/kg) dissolved in 50% polyethylene glycol aqueous solution was administered orally via a stomach tube to the portal vein cannulated rats. Blood samples (450 μL) were then collected using a heparinized syringe attached to the cannula before administration and 5, 15, 30, 60, 120, and 240 min after administration. Urine was also collected before administration and 0 to 2 h and 2 to 4 h after administration. For intravenous administration, 3,4-[…] (10 mg/kg; 31.22 μmol/kg) was injected into the jugular vein, and blood (450 μL) was collected using a heparinized syringe before administration and 5, 15, 30, 60, 120, and 240 min after administration via the jugular vein cannula. The blood (450 μL) collected was immediately cooled on ice and centrifuged at 15,000 rpm for 5 min at 4°C to obtain over 200 μL plasma. Urine was also collected before administration and 0 to 2 h and 2 to 4 h after administration. Bile was collected via the bile duct cannula before administration and 0 to 2 h and 2 to 4 h after intravenous administration. The collected plasma, urine, and bile were immediately stored in an ice box until further analyses. HT (oral administration: 100 mg/kg; 648.66 μmol/kg, intravenous administration: 10 mg/kg; 64.87 μmol/kg) and Ole (oral administration: 300 mg/kg; 555.02 μmol/kg, intravenous administration: 10 mg/kg; 18.50 μmol/kg) were investigated using the same method as described above. Metabolites were deconjugated by using β-glucuronidase (500 U) and sulfatase (50 U) in 50 μL 625 mM MOPS (pH 6.8), which was added to 200 μL of plasma, urine, or bile. The mixture was incubated for 45 min at 37°C and subjected to extraction using QuEChERS [33]. […] Shimadzu, Kyoto, Japan) equipped with a Shim-pack XR-ODS column (3.0 mm I.D. × 100 mm; Shimadzu, Kyoto, Japan) at 40°C with a mobile phase of 0.5% TFA-1% acetonitrile aqueous solution (A) and 0.5% TFA-75% acetonitrile aqueous solution (B). The elution conditions are described as follows: isocratic elution of 0% B was maintained for 4.0 min; linear gradient 0 to 4% B, 4.0-4.5 min; linear gradient 4.0-16.0% B, 4.5-16.0 min; linear gradient 16.0-100% B, 16.0-25.0 min; isocratic elution of 100% B, 25.0-26.0 min; and linear gradient 100 to 0% B, 26.0-26.1 min, with a flow rate of 0.5 mL/min. Injection volume was 50 μL. All eluted peaks were detected at 279 nm with a diode array detector (SPD-M20A; Shimadzu, Kyoto, Japan). The absorption of 3,4-[…], and Ole was evaluated by dose-normalized 4 h area under the curve (AUC0→4 h/Dose) and C max/Dose values (Table 2). […]

Data set [2] can be described thus: Jugular vein plasma levels after intravenous administration in jugular vein cannulated, freely moving rats. Conditions: for Cmax: analyte HT, at 5 min after intravenous administration, read-out: C max of HT in plasma. Format: in vivo, Wistar ST rats. The procedure:
as §1

The mark [3] stands for this setting: analyte Ole in portal plasma after oral administration.
Where [4] appears, read: male, Wistar ST, rat, 300 mg/kg, analyte Ole in portal plasma after oral administration.
Setting [5] is: after intravenous administration, 10 mg/kg.
The mark [6] stands for this setting: analyte HT in portal plasma after oral administration.
Where [7] appears, read: analyte HVA in portal plasma after oral administration.
The mark [8] stands for this setting: analyte HVAOH in portal plasma after oral administration.
Where [9] appears, read: analyte HT in portal plasma after oral administration, listed as HT.
Setting [10] is: male, Wistar ST, rat, portal vein plasma, 100 mg/kg, analyte HT in portal plasma after oral administration.

On to `C/C=C1/[C@H](O[C@@H]2O[C@H](CO)[C@@H](O)[C@H](O)[C@H]2O)OC=C(C(=O)OC)[C@H]1CC(=O)OCCc1ccc(O)c(O)c1` [Oleuropein, reference compound], for which, in data set [1] (setting [3]), the “AUC/Dose (AUC0→4 h-i.g./Dosei.g.)” value was 1.8 ± 0.4 μM·min·kg/μmol and the “C max/Dose” value amounted to 0.021 ± 0.006 μM·kg/μmol. The “AUC/Dose (AUC0→4 h-i.g./Dosei.g.)” value in data set [1] (analyte Ole in portal plasma after oral administration, listed as Ole) was determined as 1.8 μM·min·kg/μmol. Moreover, in data set [1] (setting [4]), the Cmax was 11.9 ± 3.2 µM and the Tmax is 5 min. In addition, the AUC in data set [1] (male, Wistar ST, rat, 300 mg/kg, analyte Ole in portal plasma, triplicate, read-out: AUC (converted)) was 16.9 µM·h. Also, in data set [1] (male, Wistar ST, rat), the bioavailability was determined as 0.5%. In data set [2] (after intravenous administration of Ole, 10 mg/kg), the “Other metabolites in plasma throughout the blood sampling” value was “could not be detected”. Also, the “Time at which intact compound disappeared from the systemic circulation” value in data set [2] (setting [5]) is at most 60 min. Further, the concentration at 5 min in data set [2] (male, Wistar ST, rat, plasma, after intravenous administration, 10 mg/kg, 18.50 μmol/kg, read-out: Ole detected in the plasma at 5 min) amounted to 502 µM.

As to `CC=C(C=O)C(CC=O)CC(=O)OCCc1ccc(O)c(O)c1` (stereo not shown) [3,4-DHPEA-EDA, 3,4-dihydroxyphenylethyl elenolate dialdehydic form], the “AUC/Dose (AUC0→4 h-i.g./Dosei.g.)” value in data set [1] (Total of detected analytes in portal plasma after oral administration) is 36.4 μM·min·kg/μmol and 36.4 ± 5.9 μM·min·kg/μmol; in data set [1] (setting [6]), 27.7 μM·min·kg/μmol and 27.7 ± 3.3 μM·min·kg/μmol; in data set [1] (setting [7]), 4.5 μM·min·kg/μmol and 4.5 ± 1.8 μM·min·kg/μmol; in data set [1] (setting [8]), 4.2 μM·min·kg/μmol and 4.2 ± 0.8 μM·min·kg/μmol. Besides, the AUC in data set [1] (Total of detected analytes in portal plasma) turned out to be 567.492 ± 92.322 µM·h; in data set [1] (analyte HT in portal plasma, triplicate), 432.25 ± 51.718 µM·h; in data set [1] (analyte HVA in portal plasma, triplicate), 69.667 ± 27.442 µM·h; in data set [1] (analyte HVAOH in portal plasma, triplicate) it was 65.575 ± 13.16 µM·h. Besides, the “Detection of parent 3,4-DHPEA-EDA in portal plasma” value in data set [1] (after oral administration, 300 mg/kg, 936.51 μmol/kg, 300 mg/kg) is “not observed; also recorded: not detected; also recorded: could not detect”. For the same compound, the “C max/Dose” value was 0.22 μM·kg/μmol in data set [1] (setting [6]); 0.03 μM·kg/μmol and 0.03 ± 0.007 μM·kg/μmol in data set [1] (setting [7]); 0.03 μM·kg/μmol and 0.03 ± 0.002 μM·kg/μmol in data set [1] (setting [8]). For the same compound, the Cmax in data set [1] (setting [6]) is 179 ± 45.3 µM; in data set [1] (setting [7]), 21.5 ± 6.9 µM; in data set [1] (setting [8]), 22.2 ± 2 µM; in data set [2] (10 mg/kg) it was around 131 µM. In addition, the T max stood at 30 min in data set [1] (setting [6]), 60 min in data set [1] (setting [7]) and 30 min in data set [1] (setting [8]). In addition, the “total absorption rate, times less than that of HT” value in data set [1] (total AUC0→4 h-i.g./Dosei.g. including metabolites) stood at 2.2 times. The “ratio of AUC/Dose of 3,4-DHPEA-EDA : HT : Ole” value in data set [1] (total including metabolites in portal plasma after oral administration, Ole = 1) was 13.5. For the same compound, the “AUC0→4 h-i.v./Dosei.v.” value in data set [2] (analyte HT in jugular vein plasma after intravenous administration) was determined as 259.2 μM·min·kg/μmol; in data set [2] (analyte HVA in jugular vein plasma after intravenous administration) it was 22.4 μM·min·kg/μmol; in data set [2] (analyte HVAOH in jugular vein plasma after intravenous administration), 56.0 μM·min·kg/μmol. Also, in data set [2] (jugular vein, after intravenous administration, 10 mg/kg, 31.22 μmol/kg, 10 mg/kg), the “Detection of intact 3,4-DHPEA-EDA in plasma and hematocytes” value was “not detected; also recorded: not observed”.

Regarding `OCCc1ccc(O)c(O)c1` [Hydroxytyrosol, 2-(3,4-dihydroxyphenyl) ethyl alcohol, reference compound], the “AUC/Dose (AUC0→4 h-i.g./Dosei.g.)” value in data set [1] (setting [6]) is 51.1 ± 8.5 μM·min·kg/μmol; in data set [1] (setting [9]) it was 51.1 μM·min·kg/μmol; in data set [1] (analyte HT in portal plasma after oral administration, listed as hydroxytyrosol), 51.1 μM·min·kg/μmol. The “C max/Dose” value is given as 0.61 ± 0.089 μM·kg/μmol in data set [1] (setting [6]) and 0.61 μM·kg/μmol in data set [1] (setting [9]). Besides, the bioavailability in data set [1] (male, Wistar ST, rat) worked out at 13.1%. The Cmax in data set [1] (setting [10]) came to 395 ± 58 µM; in data set [2] (male, Wistar ST, rat, plasma, 10 mg/kg) it was 1740 µM. For the same compound, the Tmax in data set [1] (setting [10]) is 15 min. Further, the exposure (AUC) in data set [1] (male, Wistar ST, rat, portal vein plasma, 100 mg/kg, analyte HT in portal plasma, triplicate, read-out: AUC (converted)) was 553 µM·h. Besides, the “Time at which intact compound disappeared from the systemic circulation” value in data set [2] (setting [5]) was “about 15 min”.
